Measured values: US20170311602A1, “METHODS AND COMPOSITIONS FOR THE CONTROL OF FUNGAL PATHOGENS IN CROP PLANTS” (Monsanto Technology LLC, priority 2014, published 2017)

Columns and labels:
Type in all cases: in vivo
[1] = test system: corn stalk rot susceptible hybrids; experiment: Greenhouse seedling emergence trial for seed safety of treated corn seed; conditions: number of plants emerged at day 7, five plants per pot
Procedure: Seeds treated with chemistry were evaluated for seed safety in greenhouse emergence trials. Seed treatment active ingredients were combined in a slurry mix with colorant, polymer, and water at the recommended rates and allowed to mix thoroughly. Using a Gustafson BMC lab treater the seed batch was deposited in the BMC coater and treatment slurry was injected and allowed to tumble for 35-40 seconds before being ejected into a bulk collection bin and transferred to a paper storage bag. Standard corn stalk rot susceptible hybrids were planted using six pot replicates of five plants per pot. The treatments were randomized in RCBD, blocked by GH watering trays. Planting media consisted of 3.5 inch pots with the following media: US10 soil and 50/50 mix of US10/REDIEARTH. Replicates were placed perpendicular to the greenhouse temperature gradient.
Initial daily emergence counts at spike emergence of first treatment, continued until emergence was complete in untreated control (7-10 days after planting). The final stand was calculated as the number of plants emerged at day 7. The stand AUC was calculated as the area under the emergence curve.

[2] = test system: Colletotrichum graminicola; experiment: Field trial, Anthracnose stalk rot disease severity after stalk wounding and inoculation; conditions: 60 g ai/100 kg seed; Acceleron 2013 base; N=3 locations; control (surface wounding) 2.9
Procedure: Field trials were conducted to evaluate seed treatments for efficacy and yield. Field plots contained a single row or up to 4 rows by 20-40 feet. Smallest plot size was a single row by 20 feet. Four replications were typically used. The hybrids selected for the study were typically moderately susceptible to Anthracnose stalk rot, which indicates a susceptibility rating of at least 5-6 on a 9 point scale (1=highly resistant, 9=highly susceptible). […] The typical growth stage for field inoculation was […]). For disease ratings, stalks were surface wounded using implements with needles that either provided shallow scratches on the surface of the stalk ( 1 cm depth) or shallow piercing wounds ( 1 cm depth). Concurrent with surface wounding, a spore suspension of Colletotrichum graminicola (C. graminicola) conidia is sprayed onto wounded area or injected into shallow wounds. The total volume of spore suspension applied was in the range of 1-5 mL. […] Disease development was monitored in control treatments and disease evaluations were usually targeted when disease index rating reached approximately 5 on a 1-9 scale in control treatments. […] 10 stalks were assessed per plot. […] The stalks were split and the number of internodes with disease symptoms was counted starting at the internode above top node with brace roots (disease incidence rating). […]

[3] = test system: Colletotrichum graminicola; experiment: Field yield trial, seed treatments in inoculated soil plots; conditions: Acceleron 2013 base, N=10 locations, control 164.4
Procedure: (§1) Field trials were conducted to evaluate seed treatments for efficacy and yield. Field plots contained a single row or up to 4 rows by 20-40 feet. Smallest plot size was a single row by 20 feet. Four replications were typically used. The hybrids selected for the study were typically moderately susceptible to Anthracnose stalk rot, which indicates a susceptibility rating of at least 5-6 on a 9 point scale (1=highly resistant, 9=highly susceptible).
(§2) The typical growth stage for field inoculation was VT/R1 (tasseling/silking). For disease ratings, stalks were surface wounded using implements with needles that either provided shallow scratches on the surface of the stalk (˜1 cm depth) or shallow piercing wounds (˜1 cm depth). Concurrent with surface wounding, a spore suspension of Colletotrichum graminicola (C. graminicola) conidia is sprayed onto wounded area or injected into shallow wounds. The total volume of spore suspension applied was in the range of 1-5 mL. Yield trials were soil inoculated or non-inoculated (natural pressure). For soil inoculation the fungus was grown on sorghum seed and the infested sorghum seed was placed in furrow at planting of the trials.
(§3) Yield was determined in the following manner. The center two rows of the plot were harvested or both rows if it was a two row plot. The weight and percent moisture were recorded for each plot grain sample. The recorded plot weight and % moisture were converted to standardized weight using standard moisture of 15.5%. Each plot was normalized to kg/ha by interpolating plot yield area to hectares. Yield in bushels/acre (bu/A) was determined by interpolating plot yield area to acre and conversion to bu/A using a standard corn bushel weight of 56 lb.
All seeds, including control, were treated with Acceleron 2013 commercial seed treatment (disease control+insect control) as a base. N=10 locations.

corn = experiment: Field yield trials, seed treatments in non-inoculated soil plots (natural pressure); conditions: Acceleron 2013 base; for Yield Trial 1: N=22 locations, control 174.9; for Yield Trial 2: N=24 locations, control 174.4
Procedure: as §1, §2, §3
All seeds, including control, were treated with Acceleron 2013 commercial seed treatment (disease+insect control) as a base. N=22 locations.
All seeds, including control, were treated with Acceleron 2013 commercial seed treatment (disease+insect control) as a base. N=24 locations.

Fusarium verticillioides = experiment: Tray seedling test, efficacy of seed treatment against Fusarium verticillioides; conditions: FS100, 30 g ai/100 kg seeds; untreated (% damage) 26%
Procedure: (§4) The seed tested (Amadeo harvest 2008, TKW 331,3) was seeded in trays 20×20×6 cm, with 9 holes for water release in field soil/quartz sand mix (1:1). Two repetitions with 25 kernels each were treated using standard seed treatment techniques. Each tray contained a single isolate of either Fusarium verticillioides G679, Fusarium verticillioides S039/07, Fusarium verticillioides S149/08, Colletotrichum graminicola BF0911 or Colletotrichum graminicola CG-1. The fungi were grown on sterile wheat grains. Thereafter, wheat grains were roughly ground after incubation and dried. For inoculation, either 5 or 15 ml of inoculum were scattered between the seeds at sowing, followed by incubation for 7 days at 10° C., followed by 7 days 24° C./15° C. (day/night period). Plants were evaluated for a) initial emergence (number of plants), b) final emergence (number of plants), c) disease level. Seedlings were classified in 3 categories: low, moderate or sevre necrosis. The disease score was calculated as follows: […]

[4] = test system: Colletotrichum graminicola; experiment: Tray seedling test, efficacy of seed treatment against Colletotrichum graminicola; conditions: FS100, 30 g ai/100 kg seeds; untreated (% damage) 22%
Procedure: as §4

With `CO/N=C(/C1=NOCCO1)c1ccccc1Oc1ncnc(Oc2ccccc2Cl)c1F` [Fluoxastrobin, fluoxastrobin] the “Final Stand” value ([1]; 25 g ai/100 kg seed) was 4.79, the “Final Stand” value ([1]; 50 g ai/100 kg seed) was 4.67 and the “Final Stand” value ([1]; 100 g ai/100 kg seed) was 4.63. For the same compound, the “Final Stand” value ([1]; 200 g ai/100 kg seed) was 4.83, the “Final Stand” value ([1]; 300 g ai/100 kg seed) was 4.58 and the “Final Stand” value ([1]; 400 g ai/100 kg seed) was 4.99. For the same compound, the “Disease Severity (nodes ≧50% necrosis)” value [2] was 1.5 nodes ≧50% necrosis, the Yield ([3]; 30 g/100 Kg seed) was 169.4 bu/A and the Yield ([3]; 60 g/100 Kg seed) was 172 bu/A. The Yield ([3]; 90 g/100 Kg seed) was 171.8 bu/A, the “Yield Trial 1” value (corn; 30 g/100 Kg seed) was 175.9 Bu/acre and the “Yield Trial 2” value (corn; 30 g/100 Kg seed) was 175.9 Bu/acre. The “Yield Trial 1” value (corn; 60 g/100 Kg seed) was 179.1 Bu/acre, the “Yield Trial 2” value (corn; 60 g/100 Kg seed) was 177.6 Bu/acre and the “Yield Trial 2” value (corn; 90 g/100 Kg seed) was 176.3 Bu/acre. For the same compound, the “Efficacy against Fusarium verticillioides (av. of 3 isolates)” value (Fusarium verticillioides) was 3 % Abbott and the “Efficacy against Colletotrichum graminicola (av. 2 isolates)” value [4] was 88 % Abbott.
For `OC(Cc1ccccc1Cl)(Cn1nc[nH]c1=S)C1(Cl)CC1` (centres unmarked) [Prothioconazole, prothioconazole], the “Final Stand” value ([1]; 25 g ai/100 kg seed) was 4.88, the “Final Stand” value ([1]; 50 g ai/100 kg seed) was 4.75 and the “Final Stand” value ([1]; 100 g ai/100 kg seed) was 4.58. The “Final Stand” value ([1]; 200 g ai/100 kg seed) was 4.92, the “Disease Severity (nodes ≧50% necrosis)” value [2] was 1.6 nodes ≧50% necrosis and the Yield ([3]; 30 g/100 Kg seed) was 172.4 bu/A. The Yield ([3]; 60 g/100 Kg seed) was 173.6 bu/A, the Yield ([3]; 90 g/100 Kg seed) was 174 bu/A and the “Yield Trial 1” value (corn; 30 g/100 Kg seed) was 177.1 Bu/acre. For the same compound, the “Yield Trial 2” value (corn; 30 g/100 Kg seed) was 176.6 Bu/acre, the “Yield Trial 1” value (corn; 60 g/100 Kg seed) was 178.6 Bu/acre and the “Yield Trial 2” value (corn; 60 g/100 Kg seed) was 178.3 Bu/acre. For the same compound, the “Yield Trial 2” value (corn; 90 g/100 Kg seed) was 175.2 Bu/acre, the “Efficacy against Fusarium verticillioides (av. of 3 isolates)” value (Fusarium verticillioides) was 47 % Abbott and the “Efficacy against Colletotrichum graminicola (av. 2 isolates)” value [4] was 51 % Abbott.
